From publication PMC10454396 (International Journal of Molecular Sciences, 2023)
Values after ≈ are worked out from the molar mass of the structure shown. Where two headings read alike, the source gives them in different places.

What was measured:
[1] = Plasma protein binding (RED), mouse plasma; format: in vitro ADME; conditions: CD-1, mouse, pooled plasma, pH 7.4, mouse plasma
Description: Plasma protein binding was determined using the Rapid Equilibrium Dialysis (RED) system (Thermo Fisher Scientific, Waltham, MA, USA). The compound was diluted in pooled murine (CD-1)/human or Wistar rat plasma (Neo Biotech, Nanterre, France) to 10 µM and added to the respective chamber according to the manufacturer’s protocol, followed by addition of PBS pH 7.4 to the opposite chamber. Samples were taken immediately after addition to the plate as well as after 2, 4 and 5 h by mixing 10 µL with 80 µL ice-cold acetonitrile containing 12.5 nM diphenhydramine as internal standard, followed by addition of 10 µL plasma to samples taken from PBS and vice versa. Samples were stored on ice until the end of the incubation and precipitated protein was removed by centrifugation (15 min, 4 °C, 4000× g, 2 centrifugation steps). Concentration of the remaining test compound at the different time points was analyzed by HPLC-MS/MS (TSQ Altis Plus, Thermo Fisher, Dreieich, Germany). The amount of compound bound to protein was calculated using the equation PPB [%] = 100 − 100 × (amount in buffer chamber/amount in plasma chamber).

[2] = parameters: method as in unpublished data from GBF; conditions: ref unpublished data from GBF; cited from earlier work
[3] = system: mCherry-expressing S. aureus Newman; assay: Zebrafish embryo model of S. aureus yolk infection, antibiotic treatment efficacy; format: in vivo, Staphylococcus aureus
Description: With the aim to study the in vivo efficacy of drugs, 30 hpf zebrafish embryos were infected with 50 CFU of mCherry-expressing S. aureus Newman. Embryos were then left to recover from injection for two hours and subsequently treated with various reference antibiotics. Antibiotic treatment was performed via bath water immersion as well as via microinjection into the yolk (local treatment) and the caudal vein (systemic treatment) to study whether differences in in vivo activity exist between the three administration routes. Survival was assessed daily until 120 hpf. Additionally, the infection was visualized and quantified by means of fluorescence microscopy at 24 h post treatment (hpt). At the end of every experiment, living embryos (and dead embryos, if possible) were homogenized to determine the remaining bacterial count. Five approved antibiotics from different classes were assessed in vivo. The chosen drugs ought to differ in physicochemical properties, such as molecular weight and polarity, in order to detect a pattern between successful administration routes and the physicochemical properties of the drug. Prior to efficacy assessment, drug-mediated toxicity in zebrafish embryos was investigated using the same administration routes (Figure S3). For microinjection, a fixed dose of 20 to 30 mg/kg was used for each antibiotic. The concentration for bath water immersion was based on the minimum inhibitory concentration (MIC) and the maximum tolerated concentration (MTC) of the drug, whereby it is generally recommended to use 50- to 100-fold the antibacterial MIC to see a positive effect.
Pulled glass capillaries for microinjection (Table S2) were prepared using a micropipette puller (P-1000, Sutter Instrument). Dechorionated and anaesthetized embryos were infected with 50 colony-forming units (CFU) of mCherry-expressing S. aureus Newman by microinjection into the yolk sac at 30 hpf. In order to confirm bacterial numbers, an equal volume of bacterial cells was ejected onto Tryptic Soy Agar (TSA) supplemented with 10 µg/mL chloramphenicol before and after the injection. Antibiotic treatment was performed two hours post infection (hpi) via three different administration routes, namely bath water immersion and microinjection into the yolk sac as well as the caudal vein (CV). The infection procedure and treatment of infected embryos are described in details in the supplementary materials (Table S3).
Embryos were transferred individually to microcentrifuge tubes and washed at least three times with sterile PBS. 200 µL of sterile PBS were added and embryos were mechanically homogenized using a micropestle (Carl Roth, Karlsruhe, Germany). 800 µL of sterile PBS were added to reach a final volume of 1 mL. The homogenates were diluted and plated on tryptic soy agar (TSA). CFU counts were determined after 24 h of incubation at 37 °C.
Embryos were placed in a black 96-well plate (Falcon; Thermo Fisher, Dreieich, Germany) and cryo-anaesthetized by submersion into ice water. Images for quantitative fluorescence analysis were acquired using the following equipment: a fluorescence stereo microscope (M205 FA, Leica Microsystems, Wetzlar, Germany) in combination with a fluorescence illuminator (X-Cite, 200DC, Excelitas Technologies, Waltham, MA, USA) and a microscope camera (DFC7000 T, Leica Microsystems). Quantification of fluorescence was performed using Fiji ImageJ version 2.1.0. Fluorescent Integrated Density (FID) was determined by counting the number of pixels with fluorescence intensity greater than the threshold (10) and multiplying the count with its mean intensity. For confocal imaging, embryos were anaesthetized through immersion in tricaine (945 µM, Sigma-Aldrich) and immobilized in 1.2% low-melting agarose in a flat-bottom 96-well plate. Confocal images and time-lapse series were acquired using the Celldiscoverer 7 with LSM 900 (Zeiss) together with the 5×/0.35 Plan-APOCHROMAT objective.
2. […]

[4] = system: Staphylococcus aureus Newman WT; assay: MIC, broth microdilution, S. aureus Newman wild type; format: cell-based; conditions: Staphylococcus aureus, NEWMAN
Description: Cefazolin was obtained from Acros Organics. Ciprofloxacin hydrochloride, linezolid and vancomycin hydrochloride were obtained from Sigma-Aldrich (St. Louis, MO, USA). Tetracycline hydrochloride was obtained from Alfa Aesar. Sorangicin A was provided by HZI, Braunschweig. Stock solutions were prepared in Milli-Q water or dimethyl sulfoxide (DMSO, Sigma-Aldrich). Minimum inhibitory concentrations (MICs) were determined in cation-adjusted Mueller-Hinton broth (MHB2) using the broth microdilution method as recommended by the Clinical and Laboratory Standards Institute (CLSI). The MIC was defined as the lowest concentration of the antibiotic causing complete inhibition of visible growth of the microorganism (CLSI, 2017).
1. In vitro characterization of mCherry expressing Staphylococcus aureus Newman
1.1 Minimum inhibitory concentration
Table S1. Antibiotic susceptibility profile of Staphylococcus aureus Newman. WT: wild type. […]

[5] = Phase I metabolic stability, human liver microsomes; format: in vitro ADME; conditions: pH 7.4
Description: For the evaluation of phase I metabolic stability, the compound (1 µM) was incubated with 0.5 mg/mL pooled mouse/rat liver microsomes (Xenotech, Kansas City, MO, USA) or human liver microsomes (Corning, NY, USA), 2 mM NADPH and 10 mM MgCl2 at pH 7.4 for 120 min at 37 °C. The metabolic stability of testosterone, verapamil and ketoconazole were determined in parallel to confirm the enzymatic activity of mouse/rat liver microsomes; for human liver microsomes testosterone, diclofenac and propranolol were used. The incubation was stopped after defined time points by precipitation of aliquots of the assay mixture with two volumes of ice-cold acetonitrile containing internal standard (15 nM diphenhydramine). Samples were stored on ice until the end of the incubation and precipitated protein was removed by centrifugation (15 min, 4 °C, 4000× g).

S. aureus = system: S. aureus; parameters: method as in unpublished data from GBF; conditions: former in vivo efficacy studies; ref unpublished data from GBF; cited from earlier work

Question: Which fraction unbound at 10 µM ([1]; 10 µM, read-out: PPB (converted)) does the source give for `C/C(=C\[C@H](C)CCCCC(=O)O)[C@@H]1O[C@@H]2C=C[C@H]1OC(=O)\C=C/C=C\C=C\[C@H]1O[C@@H]3C[C@H]1O[C@@H](/C=C/C[C@H]1O[C@H](C[C@H](O)[C@H]1C)[C@@H](O)[C@@H](O)/C=C/CC/C=C/C2)[C@@H]3C` [sorangicin A] here?
Answer: Its fraction unbound at 10 µM is 0.121.

Question: And the fraction unbound at 10 µM ([1]; read-out: free fraction)?
Answer: The fraction unbound at 10 µM was over 0.1.

Question: What about the “outcome in experimental infection models in rats” value [2] of the same molecule?
Answer: The value was “successful”.

Question: What about the “effect on survival of infected embryos” value ([3]; bath water immersion 50-100x MIC) of the same molecule?
Answer: The value was “did not show any protective effect”.

Question: What about the “difference between treated and untreated embryos” value ([3]; bath water supplemented with 1000x MIC) of the same molecule?
Answer: Its value is “no difference”.

Question: And the “bacterial fluorescence (FID) at 24 hpt” value ([3]; caudal vein microinjection)?
Answer: The value was “Bacterial fluorescence was suppressed”.

Question: And the “embryos succumbed to the infection” value ([3]; caudal vein microinjection 2 hpi, 50 CFU yolk infection)?
Answer: The value was 75%.

Question: What about the “effect on survival of infected embryos” value ([3]; caudal vein microinjection 20-30 mg/kg, 2 hpi) of the same molecule?
Answer: The value was “significantly extended the lifespan”.

Question: And the bacterial numbers ([3]; caudal vein microinjection, succumbed embryos)?
Answer: The bacterial numbers was “exceeding 10^4 CFU/embryo”.

Question: What about the “bacteria recovered (CFU plating) at 120 hpf” value ([3]; yolk microinjection) of the same molecule?
Answer: The value was “complete eradication of bacteria”.

Question: What about the “bacterial fluorescence (FID) at 24 hpt” value ([3]; yolk microinjection) of the same molecule?
Answer: Its value is “reduced bacterial burden”.

Question: And the “effect on survival of infected embryos” value ([3]; yolk microinjection 20-30 mg/kg, 2 hpi)?
Answer: Its value is “significantly increased the survival rate”.

Question: And the MIC [4]?
Answer: The MIC was 0.0625 µg/mL (≈ 0.0774 µM).

Question: And the microsomal CLint at 1 µM [5]?
Answer: Its microsomal CLint at 1 µM is 90.4 ± 16.5 µL/min/mg.

Question: And the “protective effect in mouse models of S. aureus infection” value (S. aureus)?
Answer: The value was “failed to show a protective effect”.
